The source of these data is patent US20180325889A1, “IMMUNOREGULATORY AGENTS” (FLEXUS BIOSCIENCES, INC., priority 2014, published 2018).

The structures appear in SMILES notation. pIC50: −log10 of the molar value.

For orientation: pIC50 means the negative decadic logarithm of the IC50, by convention in mol/L.

The target of the assay is T1, human IDO1/HEK293 cells (Homo sapiens, UniProt P14902).
T1 construct: expressed in transfected cells
T1 sequence (P14902 whole entry): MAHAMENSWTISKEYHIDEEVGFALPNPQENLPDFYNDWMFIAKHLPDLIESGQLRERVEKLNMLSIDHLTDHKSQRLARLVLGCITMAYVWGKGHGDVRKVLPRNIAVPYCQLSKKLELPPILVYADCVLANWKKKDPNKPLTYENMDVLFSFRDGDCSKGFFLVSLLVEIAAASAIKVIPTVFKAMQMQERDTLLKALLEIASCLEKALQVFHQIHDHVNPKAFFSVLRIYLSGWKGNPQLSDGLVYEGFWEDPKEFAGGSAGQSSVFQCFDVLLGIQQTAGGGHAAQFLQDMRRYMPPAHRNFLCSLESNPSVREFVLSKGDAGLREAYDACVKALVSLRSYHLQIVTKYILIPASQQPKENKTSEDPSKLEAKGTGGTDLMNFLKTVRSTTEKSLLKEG
Description: HEK Human IDO-1 cell-based IDO inhibition assay (kynurenine production). To be noted: HEK293 cells stably expressing human IDO1, 20 hours incubation, absorbance at 490 nm; read-out: HEK Human IDO-1 Bio Activity (IDO IC50). The method, then: They were cultured in medium (DMEM with 10% FBS) containing 1 mg/ml G418 for two weeks.
The human IDO1/HEK293 cells were seeded at 10,000 cells per 50 μL per well with RPMI/phenol red free media contains 10% FBS in a 384-well black wall clear bottom tissue culture plate (Matrix Technologies LLC) 100 nL of certain concentration of compound was then added to each well using ECHO liquid handling systems. The cells were incubated for 20 hours in 37° C. incubator with 5% CO2.
The compound treatments were stopped by adding trichloroacetic acid (Sigma-Aldrich) to a final concentration at 0.2%. The cell plate was further incubated at 50° C. for 30 minute. The equal volume supernatant (20 μL) and 0.2% (w/v) Ehrlich reagent (4-dimethylaminobenzaldehyde, Sigma-Aldrich) in glacial acetic acid were mixed in a new clear bottom 384-well plate. This plate was then incubated at room temperature for 30 minute. The absorbance at 490 nm was measured on Envision plate reader.
For `CCC(NC(=O)c1ccc(Cl)cc1)C1CCC(c2cccc(C(F)F)n2)CC1` (mixture of isomers) [Example 231a, 4-chloro-N-(1-(4-(6-(difluoromethyl)pyridin-2-yl)cyclohexyl)propyl)benzamide], the pIC50 is greater than 6.60.
Next, `CCC(NC(=O)c1ccc(Cl)cc1)[C@H]1CC[C@H](Oc2ccnc3ccccc23)CC1` (mixture of isomers) [Example 71, 4-Chloro-N-(1-((trans)-4-(quinolin-4-yloxy)cyclohexyl)propyl)benzamide]: greater than 7.30; `CCC(NC(=O)c1ccc(Cl)cc1)[C@H]1CC[C@@H](Oc2ccncc2)CC1` (mixture of isomers) [Example 77a, (±)-4-Chloro-N-(1-((cis)-4-(pyridin-4-yloxy)cyclohexyl)propyl)benzamide]: greater than 6.60.
The same measure for `CCC(NC(=O)c1ccc(Cl)cc1)[C@H]1CC[C@@H](Oc2ccnc3ccc(C(F)(F)F)cc23)CC1` (mixture of isomers) [Example 78, (±)-4-Chloro-N-(1-((cis)-4-((6-(trifluoromethyl)quinolin-4-yl)oxy)cyclohexyl)propyl)benzamide]: greater than 5.70; for `Cc1nccc(O[C@H]2CC[C@H](C(C)NC(=O)c3ccc(Cl)cc3)CC2)c1Cl` (mixture of isomers) [Example 207, rac-4-chloro-N-(1-((trans)-4-((3-chloro-2-methylpyridin-4-yl)oxy)cyclohexyl)ethyl)benzamide]: greater than 7.30; for `Cc1nccc(OC2CCC(C(C)NC(=O)c3ccc(F)cc3)CC2)c1Cl` (racemic) [Example 208]: greater than 6.60.
With `COc1ccc(C(=O)NC(C)C2CCC(Oc3ccnc(C)c3Cl)CC2)cc1` (racemic) [Example 209], the negative-log IC50 (pIC50) was greater than 6.60.
The same measure for `Cc1ccc(C(=O)NC(C)C2CCC(Oc3ccnc(C)c3Cl)CC2)cc1` (racemic) [Example 210]: greater than 6.60.
The same measure for `CCC(NC(=O)c1ccc(-c2ccccc2)cc1)[C@H]1CC[C@@H](c2ccnc3ccc(C(F)(F)F)cc32)CC1` (mixture of isomers) [Example 230, N-(1-((1s,4s)-4-(6-(trifluoromethyl)quinolin-4-yl)cyclohexyl)propyl)biphenyl-4-carboxamide]: greater than 7.30.
On to `Cc1cc(C2CCC(C(C)NC(=O)c3ccc(Cl)cc3)CC2)ccn1` (single isomer, unassigned) [Example 157b, 4-Chloro-N-(1-(4-(2-methylpyridin-4-yl)cyclohexyl)ethyl) Benzamide], for which the negative-log IC50 (pIC50) is greater than 7.30.
Next, `Cc1cc(C2CCC(C(C)NC(=O)c3ccc(Cl)cc3)CC2)ccn1` (single isomer, unassigned) [Example 157c, 4-Chloro-N-(1-(4-(2-methylpyridin-4-yl)cyclohexyl)ethyl) Benzamide]: greater than 5.70; `Cc1cc(C2CCC(C(C)NC(=O)c3ccc(Cl)cc3)CC2)ccn1` (single isomer, unassigned) [Example 157d, 4-Chloro-N-(1-(4-(2-methylpyridin-4-yl)cyclohexyl)ethyl) Benzamide]: greater than 5.70; `Cc1cc(C2CCC(C(C)NC(=O)c3ccc(Cl)cc3)CC2)ccn1` (single isomer, unassigned) [Example 157e, 4-Chloro-N-(1-(4-(2-methylpyridin-4-yl)cyclohexyl)ethyl) Benzamide]: greater than 5.70.
The same measure for `CCC(NC(=O)c1ccc(Cl)cc1)C1CCC(c2ccnc3ccc(F)cc23)CC1` (single isomer, unassigned) [Example 164a, 4-Chloro-N-(1-(4-(6-fluoroquinolin-4-yl)cyclohexyl)propyl)benzamide]: greater than 6.60; for `CCC(NC(=O)c1ccc(Cl)cc1)C1CCC(c2ccnc3ccc(F)cc23)CC1` (single isomer, unassigned) [Example 164b, 4-Chloro-N-(1-(4-(6-fluoroquinolin-4-yl)cyclohexyl)propyl)benzamide]: greater than 7.30.
The same measure for `CCC(NC(=O)c1ccc(Cl)cc1)C1CCC(c2ccnc3ccc(F)cc23)CC1` (single isomer, unassigned) [Example 164c, 4-Chloro-N-(1-(4-(6-fluoroquinolin-4-yl)cyclohexyl)propyl)benzamide]: greater than 7.30; for `CCC(NC(=O)c1ccc(Cl)cc1)C1CCC(c2ccnc3ccc(F)cc23)CC1` (single isomer, unassigned) [Example 164d, 4-Chloro-N-(1-(4-(6-fluoroquinolin-4-yl)cyclohexyl)propyl)benzamide]: greater than 7.30.
Take `CCC(NC(=O)c1ccc(C#N)cc1)C1CCC(c2ccnc3ccc(F)cc23)CC1` (single isomer, unassigned) [Example 165a, 4-Cyano-N-(1-(4-(6-fluoroquinolin-4-yl)cyclohexyl)propyl)benzamide]: the negative logarithm of the IC50 (pIC50) was greater than 5.70.
Next, `CCC(NC(=O)c1ccc(C#N)cc1)C1CCC(c2ccnc3ccc(F)cc23)CC1` (single isomer, unassigned) [Example 165b, 4-Cyano-N-(1-(4-(6-fluoroquinolin-4-yl)cyclohexyl)propyl)benzamide]: greater than 7.30; `CCC(NC(=O)c1ccc(C#N)cc1)C1CCC(c2ccnc3ccc(F)cc23)CC1` (single isomer, unassigned) [Example 165c, 4-Cyano-N-(1-(4-(6-fluoroquinolin-4-yl)cyclohexyl)propyl)benzamide]: greater than 7.30; `CCC(NC(=O)c1ccc(C#N)cc1)C1CCC(c2ccnc3ccc(F)cc23)CC1` (single isomer, unassigned) [Example 165d, 4-Cyano-N-(1-(4-(6-fluoroquinolin-4-yl)cyclohexyl)propyl)benzamide]: greater than 7.30.
Turning to `CC[C@@H](NC(=O)c1ccc(Cl)cc1)[C@H]1CC[C@@H](c2cnc3ccccc3c2)CC1` (single isomer, unassigned) [Example 203a], the negative logarithm of the IC50 (pIC50) was greater than 5.70.
Next, `CC[C@H](NC(=O)c1ccc(Cl)cc1)[C@H]1CC[C@@H](c2cnc3ccccc3c2)CC1` (single isomer, unassigned) [Example 203b]: greater than 6.60; `CC[C@@H](NC(=O)c1ccc(Cl)cc1)[C@H]1CC[C@H](c2cnc3ccccc3c2)CC1` (single isomer, unassigned) [Example 203c]: greater than 7.30.
Turning to `CC[C@H](NC(=O)c1ccc(Cl)cc1)[C@H]1CC[C@H](c2cnc3ccccc3c2)CC1` (single isomer, unassigned) [Example 203d], the pIC50 is greater than 7.30.
Turning to `CC(NC(=O)c1ccc(Cl)cc1)C1CCC(c2ccnc(C(F)(F)F)c2)CC1` (single isomer, unassigned) [Example 212, 4-chloro-N-(1-(4-(2-(trifluoromcthyl)pyridin-4-yl)cyclohexyl)ethyl)benzamide], the negative-log IC50 (pIC50) is greater than 5.70.
The same measure for `CC(NC(=O)c1ccc(Cl)cc1)C1CCC(c2ccnc(C(F)(F)F)c2)CC1` (single isomer, unassigned) [Example 213, 4-chloro-N-(1-(4-(2-(trifluoromethyl)pyridin-4-yl)cyclohexyl)ethyl)benzamide]: greater than 7.30; for `CC(NC(=O)c1ccc(Cl)cc1)C1CCC(c2ccnc(C(F)(F)F)c2)CC1` (single isomer, unassigned) [Example 214, 4-chloro-N-(1-(4-(2-(trifluorornethyl)pyridin-4-yl)cyclohexyl)ethyl)benzamide]: greater than 6.60.
Next, `CC(NC(=O)c1ccc(Cl)cc1)C1CCC(c2ccnc(C(F)(F)F)c2)CC1` (single isomer, unassigned) [Example 215, 4-chloro-N-(1-(4-(2-(trifluoromcthyl)pyridin-4-yl)cyclohcxyl)ethyl)benzamide]: greater than 5.70; `CC(NC(=O)c1ccc(Cl)cc1)C1CCC(c2ccc(C(F)(F)F)nc2)CC1` (single isomer, unassigned) [Example 217, 4-chloro-N-(1-(4-(6-(trifluoromethyl)pyridin-3-yl)cyclohexyl)ethyl)benzamide]: greater than 5.70.
With `CC(NC(=O)c1ccc(Cl)cc1)C1CCC(c2ccc(C(F)(F)F)nc2)CC1` (single isomer, unassigned) [Example 218, 4-chloro-N-(1-(4-(6-(trifluoromethyl)pyridin-3-yl)cyclohexyl)ethyl)benzamide], the pIC50 is greater than 5.70.
The same measure for `CC(NC(=O)c1ccc(Cl)cc1)C1CCC(c2ccc(C(F)(F)F)nc2)CC1` (single isomer, unassigned) [Example 219, 4-chloro-N-(1-(4-(6-(trifluoromethyl)pyridin-3-yl)cyclohexyl)ethyl)benzamide]: greater than 6.60; for `CC(NC(=O)c1ccc(Cl)cc1)C1CCC(c2ccc(C(F)(F)F)nc2)CC1` (single isomer, unassigned) [Example 220, 4-chloro-N-(1-(4-(6-(trifluoromethyl)pyridin-3-yl)cyclohexyl)ethyl)benzamide]: greater than 6.60; for `Cc1c(C2CCC(C(C)NC(=O)c3ccc(-c4ccccc4)cc3)CC2)ccnc1F` (single isomer, unassigned) [Example 222, N-(1-(4-(2-fluoro-3-methylpyridin-4-yl)cyclohexyl)ethyl)-[1,1′-biphenyl]-4-carboxamide]: greater than 5.70.
The same measure for `Cc1c(C2CCC(C(C)NC(=O)c3ccc(-c4ccccc4)cc3)CC2)ccnc1F` (single isomer, unassigned) [Example 223, N-(1-(4-(2-fluoro-3-methylpyridin-4-yl)cyclohexyl)ethyl)-[1,1′-biphenyl]-4-carboxamide]: greater than 7.30.
